The values that follow come from patent US11964943B2, “3,5-diarylidenyl-n-substituted-piperid-4-one-derived inhibitors of Stat3 pathway activity and uses thereof” (priority 2017, dated 2024).

The subject of one assay is DU145 cells. Nature of the assay: Colony formation assay for radiosensitization. Type of assay: cell-based. On the procedure:
The X-Ray radiation facility provided an AGO HS MP-1 X-ray machine with a Varian ND1-321 tube used to produce X rays at a dose rate of 1 Gy/min.
Stock cultures were trypsinised and 2.5×10^4 cells were seeded into 6-well plates and incubated at 37° C. for 24-48 hours. When cells reached […] confluency, they were treated with IE-8 (0, 0.8, 1, and 1.2 μM) for 18 hours. After drug treatment, cells were harvested by trypsinisation and re-seeded. […] Plates were then incubated for 14 days at 37° C. with 5% CO2. After this incubation, plates were washed with tap water and fixed. Colonies were stained for 30 minutes at room temperature with 1% (w/v) crystal violet (Sigma-Aldrich) in 10% ethanol, and subsequently dried overnight at room temperature. Colonies consisting of at least 50 cells were counted for each treatment. The number of colonies in unirradiated wells was used to determine the plating efficiency (number of colonies/number of cells seeded). The following formula was used to calculate survival fraction: […]

The subject of the next assay is nuclear Stat3. Nature of the assay: Confocal microscopy of Stat3 localisation. It is filed as cell-based. The settings on record: DU145, 5 μM, 5 h. The method, then:
For Stat3, pStat3 staining, 2.5×10^4 cells/ml were plated on 13-mm glass cover slip (VWR) in 24 well plates, allowed to adhere and processed the next day. […] Cells were blocked in PBS 5% BSA for 1 h at ambient temperature. Respective proteins were identified by incubation for 4 h with anti-Stat3 and anti-pStat3 rabbit polyclonal antibodies (1:1000, Cell signalling) or anti-phospho-Histone H2A.X mouse monoclonal (1:500; Millipore) diluted in a PBS 1% BSA buffer. Cells were incubated with a secondary fluorescent conjugated antibody Alexa Fluor 488 (1:500; Life Technologies) for 2 h at RT. […]
Cell nuclei and protein levels were visualized by confocal microscopy (objective ×40, Leica TCS SP2). […] In the case of IE-8 detection only, the blue fluorescent agent was excited with a UV-laser (364 nm) and detected using the DAPI filter. PI was excited with the 488 line of an argon-ion laser and detected at 642 nm. The fluorescence of IE-8 was detected and imaged by z-stack acquisition using the Leica SP2 microscope software. […]
Confocal microscopy. […] In the case of 8 h detection only, the blue fluorescent agent was excited with a UV-laser (364 nm) and detected using the DAPI filter. PI was excited with the 488 line of an argon-ion laser and detected at 642 nm. The fluorescence of 8 h was detected and imaged by z-stack acquisition using the Leica SP2 microscope software. […]

In the case of `COc1cc(/C=C2\CN(c3ccccc3)C/C(=C\c3cc(OC)c(OC)c(OC)c3)C2=O)cc(OC)c1OC` [IE-8, 3,5-Di(3,4,5-trimethoxybenzylidene)-1-phenylpiperidin-4-one], the “colony formation following irradiation” value with DU145 cells (18 h pretreatment) is “dose-dependent decrease in colony formation”. The Survival fraction with DU145 cells (IE-8 0.8 μM 18 h pretreatment, 0 Gy) amounted to 1.000; with DU145 cells (IE-8 0.8 μM 18 h pretreatment, 2 Gy) it was 0.451; in the assay on DU145 cells (IE-8 0.8 μM 18 h pretreatment, 4 Gy), 0.147; in the assay with DU145 cells (IE-8 0.8 μM 18 h pretreatment, 6 Gy) it was 0.047; with DU145 cells (IE-8 0.8 μM 18 h pretreatment, 8 Gy), 0.013; with DU145 cells (IE-8 1 μM 18 h pretreatment, 0 Gy), 1.000. In addition, the Survival fraction was determined as 0.440 with DU145 cells (IE-8 1 μM 18 h pretreatment, 2 Gy); 0.134 with DU145 cells (IE-8 1 μM 18 h pretreatment, 4 Gy); 0.026 in the assay on DU145 cells (IE-8 1 μM 18 h pretreatment, 6 Gy); 0.006 in the assay on DU145 cells (IE-8 1 μM 18 h pretreatment, 8 Gy); 1.000 with DU145 cells (IE-8 1.2 μM 18 h pretreatment, 0 Gy); 0.349 in the assay on DU145 cells (IE-8 1.2 μM 18 h pretreatment, 2 Gy). For the same molecule, the Survival fraction in the assay with DU145 cells (IE-8 1.2 μM 18 h pretreatment, 4 Gy) turned out to be 0.077; in the assay with DU145 cells (IE-8 1.2 μM 18 h pretreatment, 6 Gy), 0.014; with DU145 cells (IE-8 1.2 μM 18 h pretreatment, 8 Gy), 0.002. The “levels of nuclear Stat3” value in the assay with nuclear Stat3 was “the levels of nuclear Stat3 were decreased”.
